Reference: patent US20190350939A1, “CANCER TREATMENT METHOD USING Ni-SOD MIMIC COMPOUND” (NATIONAL CHIAO TUNG UNIVERSITY, priority 2018, published 2019)

system: MiaPaCa-2 cells; test: In vivo study, MiaPaCa-2 subcutaneous tumor in nude mice; conditions: 0.27 mg/kg tail vein injection, 18th day; start 125 mm^3; PBS group 600 mm^3
Experimental: In an embodiment, mice (BALB/cAnN.Cg-Foxn1nu/CrlNarl mice) are reared until 6 weeks of age, and 1×10^6 of MiaPaCa-2 cells are subcutaneously injected into the right rear leg of the mice. […] The experiment is performed until the 18th day, and the tumor size is measured every 2 days. The measurement formula of the tumor size is as follows: ½ (L×W^2), wherein L represents the longest diameter of the tumor; W represents the shortest diameter of the tumor.

| SMILES | tumor size |
| --- | --- |
| CC[C@@]1(O)C(=O)OCc2c1cc1n(c2=O)Cc2cc3ccccc3nc2-1 [CPT] | 52 mm^3 |
| COc1cccc2c1C(=O)c1c(O)c3c(c(O)c1C2=O)C[C@@](O)(C(=O)CO)C[C@@H]3O[C@H]1C[C@H](N)[C@H](O)[C@H](C)O1 [Doxorubicin] | 64 mm^3 |
| Nc1ccn([C@@H]2O[C@H](CO)[C@@H](O)C2(F)F)c(=O)n1 [Gemzar] | 30 mm^3 |
| CC(=O)O[C@@]12CO[C@@H]1C[C@H](O)[C@@]1(C)C(=O)[C@H](O)C3=C(C)[C@@H](OC(=O)[C@H](O)[C@@H](NC(=O)OC(C)(C)C)c4ccccc4)C[C@@](O)([C@@H](OC(=O)c4ccccc4)[C@H]21)C3(C)C [Taxatere] | 68 mm^3 |
